Earlier results as cited in patent publication EP4729055A1, “TREATMENT OF DISORDERS USING SPHINGOSINE-1-PHOSPHATE RECEPTOR MODULATORS” (The Provost, Fellows, Foundation Scholars, & the other …, priority 2024, dated 2026).

- log P: 5.5
Compound: CCCCCCCCc1ccc(CCC(N)(CO)CO)cc1 [fingolimod, 2-Amino-2-[2-(4-octylphenyl)ethyl]propane-1,3-diol]
